{
  "source": "patent US20240400546A1",
  "about": "“COMPOUNDS AND USES THEREOF” (JANSSEN PHARMACEUTICA NV, priority 2016, published 2024)",
  "key": {"[1]": {"target": "T1, SCD5 (Homo sapiens, UniProt Q86SK9)", "T1 construct": "host or cells: S. cerevisiae ole1Δ strain, plasmid pRS316 with TDH3 promoter and CYC1 terminator", "T1 sequence (Q86SK9 1-330)": "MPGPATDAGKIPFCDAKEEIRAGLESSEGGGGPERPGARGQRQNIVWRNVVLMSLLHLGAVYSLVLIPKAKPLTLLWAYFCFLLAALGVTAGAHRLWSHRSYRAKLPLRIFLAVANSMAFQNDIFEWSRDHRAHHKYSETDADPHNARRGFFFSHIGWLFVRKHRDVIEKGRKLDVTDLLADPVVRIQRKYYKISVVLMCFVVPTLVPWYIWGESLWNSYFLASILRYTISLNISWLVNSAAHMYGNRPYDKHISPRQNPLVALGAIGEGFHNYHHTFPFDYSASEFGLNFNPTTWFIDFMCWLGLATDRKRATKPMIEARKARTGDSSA", "experiment": "Growth of yeast surviving solely on human SCD5", "format": "cell-based, yeast expressing human SCD5", "details": "percent of the DMSO-treated condition", "method": "(§1) FIG. 6 is a series of graphs showing that commercial Scd inhibitors target human SCD1/SCD5 in yeast. Yeast surviving solely on yeast OLE1, or human SCD1 or SCD5, were treated with four commercial Scd inhibitors at indicated concentrations. Data are expressed as a percent of the DMSO-treated condition.\n(§2) FIG. 7 is a series of graphs showing that 1,2,4-oxadiazoles target human SCD1 and SCD5. Three “SCD” strains expressing yeast OLE1 or human SCD1 or SCD5 were treated with five representative 1,2,4-oxadiazoles and a cycloheximide toxicity control at concentrations indicated on the logic x-axis. The y-axis indicates the percent of the DMSO-treated condition. […] Approximately one half of all (250) 1,2,4-oxadiazoles tested inhibited SCD1 or SCD5 in a manner that was reversed by oleic/palmitoleic acid treatment."}, "[2]": {"target": "T2, yeast OLE1 (Saccharomyces cerevisiae, UniProt P21147)", "T2 construct": "expressed in transfected cells; host or cells: S. cerevisiae ole1Δ strain (W303 pdr1Δ pdr3Δ background), plasmid pRS316 with TDH3 promoter and CYC1 terminator", "T2 sequence (P21147 1-510)": "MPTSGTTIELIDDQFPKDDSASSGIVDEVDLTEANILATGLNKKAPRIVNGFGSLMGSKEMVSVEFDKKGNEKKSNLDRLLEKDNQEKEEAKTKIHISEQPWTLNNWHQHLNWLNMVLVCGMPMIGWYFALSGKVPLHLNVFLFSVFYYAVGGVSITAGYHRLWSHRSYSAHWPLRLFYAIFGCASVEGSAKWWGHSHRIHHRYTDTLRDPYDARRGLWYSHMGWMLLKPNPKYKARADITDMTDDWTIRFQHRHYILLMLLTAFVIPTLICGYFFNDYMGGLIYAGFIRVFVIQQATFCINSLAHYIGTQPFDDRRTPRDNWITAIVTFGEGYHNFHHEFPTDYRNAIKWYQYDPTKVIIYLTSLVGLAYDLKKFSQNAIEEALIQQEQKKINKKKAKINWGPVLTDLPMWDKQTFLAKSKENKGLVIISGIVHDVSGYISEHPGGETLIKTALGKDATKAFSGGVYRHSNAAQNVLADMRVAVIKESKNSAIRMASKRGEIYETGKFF", "experiment": "Growth of yeast surviving solely on yeast OLE1", "format": "cell-based", "details": "percent of the DMSO-treated condition", "method": "as §1, §2"}, "[3]": {"target": "T3, SCD1 (Homo sapiens, UniProt O00767)", "T3 construct": "host or cells: S. cerevisiae ole1Δ strain, plasmid pRS316 with TDH3 promoter and CYC1 terminator", "T3 sequence (O00767 1-359)": "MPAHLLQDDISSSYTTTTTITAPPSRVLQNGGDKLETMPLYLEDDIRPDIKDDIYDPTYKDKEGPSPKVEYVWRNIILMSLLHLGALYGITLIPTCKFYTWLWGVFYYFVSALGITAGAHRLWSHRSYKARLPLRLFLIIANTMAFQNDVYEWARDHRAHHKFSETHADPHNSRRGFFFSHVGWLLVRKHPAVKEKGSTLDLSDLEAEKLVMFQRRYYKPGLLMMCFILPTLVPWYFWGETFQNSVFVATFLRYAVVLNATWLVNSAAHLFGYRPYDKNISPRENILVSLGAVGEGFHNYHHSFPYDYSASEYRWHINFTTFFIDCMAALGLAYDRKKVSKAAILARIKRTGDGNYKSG", "experiment": "Growth of yeast surviving solely on human SCD1", "format": "cell-based", "details": "percent of the DMSO-treated condition", "method": "as §1, §2"}, "[4]": {"target": "T3, SCD1", "experiment": "Growth inhibition of humanized yeast expressing SCD1 as sole desaturase", "format": "cell-based", "details": "humanized yeast expressing SCD1", "method_in_brief": "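ole1Δ yeast (W303 pdr1Δ pdr3Δ background) carried plasmid-borne human SCD1, human SCD5 or yeast Ole1 as the sole desaturase and were grown in uracil-lacking galactose medium in 384-well plates. Starting 2× density was OD600 0.02, with incubation at 30 °C. Growth was read as OD600 at 24 h for Ole1 and at 40 h for SCD1 and SCD5.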"}, "[5]": {"target": "T1, SCD5", "experiment": "Growth inhibition of humanized yeast expressing SCD5 as sole desaturase", "format": "cell-based", "details": "humanized yeast expressing SCD5", "method": "(§3) Strain ole1Δ (yeast ole1 deletion mutant) was constructed by deleting OLE1 with NAT-MX6 in BY4741, amplifying the deletion cassette from the genomic DNA of the resulting strain with primers flanking the ORF by 1000 bp upstream and downstream, transforming the resulting deletion cassette into W303 pdr1Δ pdr3Δ, and plating transformants on YPD media containing G418 (200 μg/mL) and nourseothricin (100 μg/mL) with 0.01% TWEEN®-20 and 0.5 mM oleic and palmitoleic acids.\n(§4) The coding sequence of yeast OLE1 was also cloned into this plasmid). These clones were then transformed into the ole1Δ strain and plated on CSM-Ura media (CSM lacking uracil) with 2% glucose (w/v) and independent colonies were isolated and amplified.\n(§5) All compound profiling experiments were performed using the same basic protocol. Different genetic backgrounds (e.g., gene deletions) or conditions (e.g., addition of oleic and palmitoleic acid) were replaced as indicated below.\n(§6) Yeast were cultured using standard techniques in complete synthetic media (CSM) and yeast nitrogen base supplemented with 2% (w/v) carbon source (glucose, raffinose, or galactose) to regulate the expression of the toxic disease protein. An initial starter culture was inoculated in 3 mL CSM-Glucose media and incubated overnight in a 30° C. shaker incubator (225 rpm). Saturated morning cultures were then diluted 1:20 in fresh CSM-Raffinose media and grown for 6 h to an OD600 (optical density) of ˜0.4-0.8 at 30° C. with shaking.\n(§7) Compound administration was performed in two separate steps. First, 15 μL of CSM-Galactose (induces expression of toxic protein) was dispensed into clear 384 well assay plates using a MULTIDROP™ Combi reagent dispenser. […] The cultures described above were then diluted to a 2× concentration (0.03 and 0.08 for alpha-synuclein and ApoE, final OD600 of 0.015 and 0.04) in CSM-Galactose. For wild-type and Ole1/SCD1/SCD5 plasmid-containing strains, the 2× cell density was 0.02. […] For 96-well assays (FIGS. 1A and 1B), compound dilutions in DMSO were generated in 96 well plates and 1 μL was manually pipetted into 96 well clear bottom assay plates.\n(§8) For experiments using a plasmid-borne copy of Ole1, SCD1, or SCD5 (FIGS. 3B, 6, and 7), media lacking uracil (SX-Ura, where X is glucose, raffinose, or galactose), was used for all steps of the compound profiling protocol to ensure its maintenance throughout the assay.\n(§9) After yeast delivery, assay plates were incubated under humidified conditions at 30° C. for 24 to 40 h. ApoE4 rescue experiments were stopped at 24 h, aSyn experiments at 40 h, Ole1 at 24 h, and SCD1/SCD5 at 40 h. The growth of yeast was monitored by reading the OD600 of each well using a microplate reader (Perkin Elmer EnVision™)."}, "[6]": {"system": "yeast strains expressing the human protein α-synuclein", "experiment": "Yeast rescue assay, α-synuclein toxicity (OD600 growth)", "format": "cell-based", "details": "40 h; for EC50: read-out: α-Syn EC50", "method": "(§10) In a standard yeast assay, a single-use aliquot of cells was thawed on ice and diluted into CSM/glucose (5 mL). Cultures were grown for 8 hours at 30° C. This pre-growth enables the yeast to exit the thaw and begin to grow without expressing aSyn or ApoE4. After 8 hours, cell density (OD600) was determined and cultures diluted to an OD600 of 0.01 in CSM/raffinose for an overnight culture phase at 30° C. During this period, the active glucose repression of the GAL1 promoter was relieved; however, expression of the α-Syn/ApoE4 genes were not yet induced. After ˜16 hours of growth, cultures attain an OD600 of 0.4-0.8 and were ready to apply to assay plates containing compound.\n(§11) Compound profiling assays were executed in clear-bottom 384 well plates. First, compound plates were thawed at room temperature for 45′, centrifuged at 1,000×g for 1 minute, and the foil removed. Clear 384 well assay plates were then filled with 15 μL of CSM/galactose. Both compound and media-containing plates were arranged on the Janus workstation and a compound pin tool (384×100 nL slotted pins) used to deliver 100 nL of compounds to each well according to the well map of the compound plate. Based on the previous serial dilution, the final concentration of compound ranged from […] to 12.5 nM. The pin tool was washed iteratively with both 50% DMSO and 100% ethanol between each assay plate. After delivering compound to each assay plate, the overnight CSM/raffinose aSyn or ApoE4 cultures were added at a 2× cell density (0.04 for aSyn and 0.08 for ApoE4) in CSM/galactose to achieve a final assay OD600 of 0.02 and 0.04 for aSyn and ApoE, respectively. The cultures (15 μL per well) were then dispensed to the compound-containing 384 well assay plates using an automated plate filler. Plates were incubated in a humidified 30° C. incubator for 40 or 24 hours for aSyn and ApoE4, respectively. The OD600 of each assay plate was then read with a microplate reader (e.g., Perkin Elmer Envision).\nThe efficacy and potency of compounds were calculated according to the following. Raw data (OD600 values) were first background corrected to account for OD600 contributed by the plate and media itself. The efficacy (percent above DMSO, herein referred to as “Emax”) was calculated according to the equation: (Experimental well−DMSO control well)/(DMSO control well)*100. […] Normalized dose-response data was fit with a logistic regression curve using Spotfire (TIBCO), or similar curve-fitting software package. EC50 values were then reported along with EMax to provide both efficacy and potency measures for each analog and enable further compound design."}, "[7]": {"target": "T4, Ole1 (Saccharomyces cerevisiae, UniProt P21147)", "T4 construct": "expressed in transfected cells; host or cells: S. cerevisiae ole1Δ strain (W303 pdr1Δ pdr3Δ background), plasmid pRS316 with TDH3 promoter and CYC1 terminator", "T4 sequence (P21147 1-510)": "T2 sequence (P21147 1-510)", "experiment": "Growth inhibition of yeast expressing Ole1 as sole desaturase", "format": "cell-based", "details": "yeast expressing Ole1 as sole desaturase", "method": "as §3, §4, §5, §6, §7, §8, §9"}, "[8]": {"system": "yeast strains expressing the human protein ApoE4", "experiment": "Yeast rescue assay, ApoE4 toxicity (OD600 growth)", "format": "cell-based", "details": "24 h", "method": "as §10\nas §11, with “The cultures (15 μL per well) were then dispensed to the compound-containing 384 well assay plates using an automated plate filler. Plates were incubated in a humidified 30° C. incubator for 40 or 24 hours for aSyn and ApoE4, respectively.” left out\nThe efficacy and potency of compounds were calculated according to the following. […] The efficacy (percent above DMSO, herein referred to as “Emax”) was calculated according to the equation: (Experimental well−DMSO control well)/(DMSO control well)*100. […]"}},
  "note": "Where two headings read alike, the source gives them in different places.",
  "data": [
    {"smiles": "C[C@@H]1C[C@@H]([C@H](O)CC2CC(=O)NC(=O)C2)C(=O)[C@@H](C)C1", "note": "[Cyclohexamide, cycloheximide]", "values": [
      {"measurement": "growth of SCD5-expressing yeast", "setting": "[1]", "result": "inhibited growth of all three strains with the same potency"},
      {"measurement": "growth of Ole1-expressing yeast", "setting": "[2]", "result": "inhibited growth of all three strains with the same potency"},
      {"measurement": "growth of SCD1-expressing yeast", "setting": "[3]", "result": "inhibited growth of all three strains with the same potency"}
    ]},
    {"smiles": "CCOc1ccc(-c2noc(C3CCN(C(=O)[C@@H]4CC[C@H](c5ccccc5)N4)CC3)n2)cc1OC", "note": "[compound 119]", "values": [
      {"measurement": "IC50", "setting": "[4]", "result": "> 45", "unit": "µM"},
      {"measurement": "IC50", "setting": "[5]", "result": "> 45", "unit": "µM"},
      {"measurement": "Emax", "setting": "[6]; Homo sapiens, percent above DMSO, read-out: α-Syn Emax", "result": 61, "unit": "%"},
      {"measurement": "EC50", "setting": "[6]; Homo sapiens", "result": 20.9, "unit": "µM"}
    ]},
    {"smiles": "Cc1ccc(-c2noc(C3CCN(C(=O)C4CC(=O)N(c5ccc(C)c(C)c5)C4)CC3)n2)cc1", "note": "(centres unmarked) [Compound 61]", "values": [
      {"measurement": "IC50", "setting": "[7]", "result": 40.9, "unit": "µM"},
      {"measurement": "OLE1 % Max Inhibition", "setting": "[7]", "result": 71.50, "unit": "%"},
      {"measurement": "EC50", "setting": "[8]; Homo sapiens", "result": 19.4, "unit": "µM"},
      {"measurement": "Emax", "setting": "[8]; Homo sapiens, percent above DMSO", "result": 465, "unit": "%"},
      {"measurement": "SCD1 % Max Inhibition", "setting": "[4]", "result": 2.37, "unit": "%"},
      {"measurement": "SCD5 % Max Inhibition", "setting": "[5]", "result": 13.18, "unit": "%"},
      {"measurement": "EC50", "setting": "[6]", "result": 19.7, "unit": "µM"},
      {"measurement": "α-Syn Emax", "setting": "[6]; percent above DMSO", "result": 229, "unit": "%"}
    ]},
    {"smiles": "CCOc1ccc(-c2noc(C3CCN(C(=O)N4CCCCC4)CC3)n2)cc1OC", "note": "[Compound 53]", "values": [
      {"measurement": "ApoE4 Emax", "setting": "[8]; percent above DMSO", "result": 296, "unit": "%"},
      {"measurement": "α-Syn Emax", "setting": "[6]; percent above DMSO", "result": 81, "unit": "%"}
    ]}
  ]
}
